According to patent US20250136578A1 (Kolm Therapeutics Inc., priority 2023, published 2025):
Like-named read-outs stand apart in the source and are kept apart here.

Tests used:
AR / CBP ternary complex = AR / CBP ternary complex (Homo sapiens, UniProt P10275+Q92793); assay: Ternary complex formation assay (sandwich ELISA, AR capture, CBP antibody detection) in VCaP cell lysates; type: cell-based
Outline: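 Sandwich ELISA: plates were coated with anti-AR antibody (AR441) and given lysates of VCaP cells treated 1.5 h with bifunctional compound in charcoal-stripped serum. Co-captured CBP or p300 was probed with rabbit mAbs and HRP secondary. Chemifluorescent signal (ex 570/em 585) was read at 0, 5 and 15 min.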

VCaP cells = assay: VCaP growth inhibition assay (CTG); type: cell-based; details: Homo sapiens, 216 h, 30 pM R1881, 9 days
Outline: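 Growth was measured by CTG luminescence after a 9-day exposure of VCaP cells to compound (final 10 fM–100 nM, fivefold steps) in the presence of 30 pM final R1881, in phenol red-free DMEM/5% CSS. IC50 values were derived by nonlinear 4-parameter regression of RLU against concentration.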

[1] = read-out: Average Ternary Complex, treated 1.5 hours, rabbit CBP or p300 antibody detection
[2] = treated 1.5 hours, rabbit CBP or p300 antibody detection, average, read-out: Average Ternary Complex

Chain of AR / CBP ternary complex (P10275 whole entry): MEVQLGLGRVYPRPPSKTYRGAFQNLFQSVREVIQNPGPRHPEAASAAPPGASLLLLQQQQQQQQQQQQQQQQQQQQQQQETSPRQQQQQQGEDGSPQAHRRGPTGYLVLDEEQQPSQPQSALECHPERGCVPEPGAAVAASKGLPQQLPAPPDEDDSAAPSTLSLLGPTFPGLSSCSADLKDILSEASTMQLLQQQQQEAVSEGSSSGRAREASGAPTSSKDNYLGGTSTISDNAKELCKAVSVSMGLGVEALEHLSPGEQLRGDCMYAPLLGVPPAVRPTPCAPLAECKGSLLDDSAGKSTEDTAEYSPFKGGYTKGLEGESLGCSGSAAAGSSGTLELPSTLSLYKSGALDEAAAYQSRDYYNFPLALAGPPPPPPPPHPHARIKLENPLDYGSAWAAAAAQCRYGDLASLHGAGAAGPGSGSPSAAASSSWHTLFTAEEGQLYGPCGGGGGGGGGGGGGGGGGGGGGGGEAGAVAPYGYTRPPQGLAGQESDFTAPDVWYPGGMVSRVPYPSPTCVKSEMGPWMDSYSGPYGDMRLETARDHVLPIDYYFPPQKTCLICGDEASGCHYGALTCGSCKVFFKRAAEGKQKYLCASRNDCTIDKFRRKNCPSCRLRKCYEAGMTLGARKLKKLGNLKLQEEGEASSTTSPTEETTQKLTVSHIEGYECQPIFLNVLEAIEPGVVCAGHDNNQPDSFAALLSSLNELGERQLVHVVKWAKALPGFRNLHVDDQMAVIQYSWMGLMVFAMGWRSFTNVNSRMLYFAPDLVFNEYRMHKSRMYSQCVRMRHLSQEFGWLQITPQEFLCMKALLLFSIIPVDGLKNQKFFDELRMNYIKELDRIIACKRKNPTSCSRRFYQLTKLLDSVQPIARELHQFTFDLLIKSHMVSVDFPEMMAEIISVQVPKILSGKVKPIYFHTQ
Chain of AR / CBP ternary complex (Q92793 2-2442): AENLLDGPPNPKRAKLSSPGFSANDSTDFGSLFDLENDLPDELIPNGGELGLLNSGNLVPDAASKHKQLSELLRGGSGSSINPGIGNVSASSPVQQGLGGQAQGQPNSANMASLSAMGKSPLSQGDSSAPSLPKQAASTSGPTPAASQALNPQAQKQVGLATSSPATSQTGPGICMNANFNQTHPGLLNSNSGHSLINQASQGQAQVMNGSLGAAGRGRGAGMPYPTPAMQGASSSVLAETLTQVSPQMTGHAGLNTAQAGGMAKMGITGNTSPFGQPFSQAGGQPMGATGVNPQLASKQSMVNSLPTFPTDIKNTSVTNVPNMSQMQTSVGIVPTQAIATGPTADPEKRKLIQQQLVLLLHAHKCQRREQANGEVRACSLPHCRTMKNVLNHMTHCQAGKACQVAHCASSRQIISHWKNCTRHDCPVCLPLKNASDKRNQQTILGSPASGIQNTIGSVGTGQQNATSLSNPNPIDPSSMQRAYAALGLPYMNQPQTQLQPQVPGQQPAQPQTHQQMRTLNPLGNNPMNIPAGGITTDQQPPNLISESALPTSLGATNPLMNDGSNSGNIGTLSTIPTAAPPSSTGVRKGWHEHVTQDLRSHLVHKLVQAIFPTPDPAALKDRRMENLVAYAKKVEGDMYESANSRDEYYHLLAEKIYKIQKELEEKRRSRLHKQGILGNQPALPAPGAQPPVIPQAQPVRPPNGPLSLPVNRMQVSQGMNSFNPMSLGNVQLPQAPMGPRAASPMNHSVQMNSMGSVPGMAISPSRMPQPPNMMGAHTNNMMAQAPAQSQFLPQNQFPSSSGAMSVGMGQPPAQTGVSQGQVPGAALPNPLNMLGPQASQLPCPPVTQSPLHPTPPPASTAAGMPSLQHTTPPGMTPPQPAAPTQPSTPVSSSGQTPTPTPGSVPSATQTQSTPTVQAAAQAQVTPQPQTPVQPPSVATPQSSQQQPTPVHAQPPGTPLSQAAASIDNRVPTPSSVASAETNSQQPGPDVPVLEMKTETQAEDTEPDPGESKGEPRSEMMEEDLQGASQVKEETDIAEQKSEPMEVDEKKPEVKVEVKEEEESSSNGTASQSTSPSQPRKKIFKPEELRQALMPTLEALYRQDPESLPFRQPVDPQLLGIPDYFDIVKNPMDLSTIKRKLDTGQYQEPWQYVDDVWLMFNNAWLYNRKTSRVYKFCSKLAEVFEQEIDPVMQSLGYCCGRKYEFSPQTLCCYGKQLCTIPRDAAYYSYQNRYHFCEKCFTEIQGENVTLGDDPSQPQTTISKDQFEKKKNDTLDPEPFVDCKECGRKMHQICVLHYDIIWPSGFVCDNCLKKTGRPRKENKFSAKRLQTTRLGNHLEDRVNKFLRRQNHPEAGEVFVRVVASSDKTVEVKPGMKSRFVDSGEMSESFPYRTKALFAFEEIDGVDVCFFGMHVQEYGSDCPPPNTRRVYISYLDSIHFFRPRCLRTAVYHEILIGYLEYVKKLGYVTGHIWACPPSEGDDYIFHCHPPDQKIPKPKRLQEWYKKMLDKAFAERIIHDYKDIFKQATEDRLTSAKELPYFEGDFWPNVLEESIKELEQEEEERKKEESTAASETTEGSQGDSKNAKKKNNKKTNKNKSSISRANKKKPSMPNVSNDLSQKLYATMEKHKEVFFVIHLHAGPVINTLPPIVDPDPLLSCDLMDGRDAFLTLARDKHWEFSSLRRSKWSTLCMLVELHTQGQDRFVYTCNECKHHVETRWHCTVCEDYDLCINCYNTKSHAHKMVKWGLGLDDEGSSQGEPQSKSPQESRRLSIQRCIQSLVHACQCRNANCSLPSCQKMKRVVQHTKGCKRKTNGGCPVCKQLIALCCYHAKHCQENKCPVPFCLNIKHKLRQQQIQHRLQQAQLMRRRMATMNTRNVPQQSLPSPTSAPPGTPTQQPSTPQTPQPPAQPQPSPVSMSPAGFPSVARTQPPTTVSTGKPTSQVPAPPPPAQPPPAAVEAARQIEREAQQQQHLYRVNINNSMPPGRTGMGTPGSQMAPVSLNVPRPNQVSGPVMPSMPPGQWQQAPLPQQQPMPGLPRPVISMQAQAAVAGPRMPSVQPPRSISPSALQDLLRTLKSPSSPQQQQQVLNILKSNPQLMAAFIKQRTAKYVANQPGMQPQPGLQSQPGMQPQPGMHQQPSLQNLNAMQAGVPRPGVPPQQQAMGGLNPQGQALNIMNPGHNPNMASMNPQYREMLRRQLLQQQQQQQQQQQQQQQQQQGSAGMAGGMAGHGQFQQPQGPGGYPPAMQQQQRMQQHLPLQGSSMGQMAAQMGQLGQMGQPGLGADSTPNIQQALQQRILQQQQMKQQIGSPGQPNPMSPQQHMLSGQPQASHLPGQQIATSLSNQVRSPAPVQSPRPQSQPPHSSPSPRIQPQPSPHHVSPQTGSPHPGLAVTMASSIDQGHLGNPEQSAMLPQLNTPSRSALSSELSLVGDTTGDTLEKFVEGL

With `Cn1c(=O)n(C)c2cc(N3CCCc4cc(-c5ccc(CCC6CCN(c7ccc(C(=O)N[C@H]8CC[C@H](Oc9ccc(C#N)c(Cl)c9)CC8)nn7)CC6)nc5)c(C(F)F)cc43)ccc21` [Compound 53, N-[4-(3-chloro-4-cyano-phenoxy)cyclohexyl]-6-[4-[2-[5-[7-(difluoromethyl)-1-(1,3-dimethyl-2-oxo-benzimidazol-5-yl)-3,4-dihydro-2H-quinolin-6-yl]-2-pyridyl]ethyl]-1-piperidyl] pyridazine-3-carboxamide] the EC50 (AR / CBP ternary complex; [1]) was < 1 nM and the IC50 (VCaP cells) was > 100 nM.
With `CC(=O)N1CCc2c(c(-c3cccc4cc(-c5ccc(CC6CCN(c7ccc(C(=O)N[C@H]8CC[C@H](Oc9ccc(C#N)c(Cl)c9)CC8)nn7)CC6)nc5)ncc34)nn2C)C1` [Compound 19, 6-[4-[[5-[8-(5-acetyl-1-methyl-6,7-dihydro-4H-pyrazolo[4,3-c]pyridin-3-yl)-3-isoquinolyl]-2-pyridyl]methyl]-1-piperidyl]-N-[4-(3-chloro-4-cyano-phenoxy)cyclohexyl]pyridazine-3-carboxamide] the EC50 (AR / CBP ternary complex; [2]) was > 100 nM and the IC50 (VCaP cells) was ≤ 0.1 nM.
For `CC(=O)N1CCc2c(c(N3CCCc4cc(-c5cnn(C)c5)c(C(F)F)cc43)nn2C2CCN(C(=O)COC3CCN(c4ccc(C(=O)N[C@H]5CC[C@H](N(C)c6ccc(C#N)c(Cl)c6)CC5)cc4)CC3)CC2)C1` [Compound 12, 4-[4-[2-[4-[5-acetyl-3-[7-(difluoromethyl)-6-(1-methylpyrazol-4-yl)-3,4-dihydro-2H-quinolin-1-yl]-6,7-dihydro-4H-pyrazolo[4,3-c]pyridin-1-yl]-1-piperidyl]-2-oxo-ethoxy]-1-piperidyl]-N-[4-(3-chloro-4-cyano-N-methyl-anilino)cyclohexyl]benzamide], the EC50 (AR / CBP ternary complex; [1]) was < 1 nM and the IC50 (VCaP cells) was ≤ 0.1 nM.
For `CC(=O)N1CCc2c(c(-c3cccc4cc(-c5ccc(CCC6CCN(c7ccc(C(=O)N[C@H]8CC[C@H](Oc9ccc(C#N)c(Cl)c9)CC8)nn7)CC6)cc5)ncc34)nn2C2CCOCC2)C1` [Compound 153, 6-[4-[2-[4-[8-(5-acetyl-1-tetrahydropyran-4-yl-6,7-dihydro-4H-pyrazolo[4,3-c]pyridin-3-yl)-3-isoquinolyl]phenyl]ethyl]-1-piperidyl]-N-[4-(3-chloro-4-cyano-phenoxy)cyclohexyl]pyridazine-3-carboxamide], the EC50 (AR / CBP ternary complex; [2]) was < 1 nM and the IC50 (VCaP cells) was ≤ 0.1 nM.
Compound `CC(=O)N1CCc2c(c(N3CCCc4cc(-c5cnn(C)c5)c(C(F)F)cc43)nn2C2CCN([C@H]3CCCN(c4ccc(C(=O)N[C@H]5CC[C@H](Oc6ccc(C#N)c(Cl)c6)CC5)nn4)C3)CC2)C1` [Compound 258, 6-[(3S)-3-[4-[5-acetyl-3-[7-(difluoromethyl)-6-(1-methylpyrazol-4-yl)-3,4-dihydro-2H-quinolin-1-yl]-6,7-dihydro-4H-pyrazolo[4,3-c]pyridin-1-yl]-1-piperidyl]-1-piperidyl]-N-[4-(3-chloro-4-cyano-phenoxy)cyclohexyl]pyridazine-3-carboxamide] has an EC50 (AR / CBP ternary complex; [2]) of 1 to 10 nM and an IC50 (VCaP cells) of 1 to 100 nM.
In the case of `CC(=O)N1CCc2c(c(N3CCCc4cc(-c5ccc(CCC6CCN(c7ccc(C(=O)N[C@H]8CC[C@H](Oc9ccc(C#N)c(Cl)c9)CC8)cn7)CC6)cc5)c(C(F)F)cc43)nn2C2CCOCC2)C1` [Compound 168, 6-[4-[2-[4-[1-(5-acetyl-1-tetrahydropyran-4-yl-6,7-dihydro-4H-pyrazolo[4,3-c]pyridin-3-yl)-7-(difluoromethyl)-3,4-dihydro-2H-quinolin-6-yl]phenyl]ethyl]-1-piperidyl]-N-[4-(3-chloro-4-cyano-phenoxy)cyclohexyl]pyridine-3-carboxamide], the EC50 (AR / CBP ternary complex; [2]) is reported as 10 to 100 nM and the IC50 (VCaP cells) is reported as ≤ 0.1 nM.
`CC(=O)N1CCc2c(c(N3CCCc4cc(-c5cscn5)c(C(F)F)cc43)nn2C2CCN([C@@H]3CCCN(c4ccc(C(=O)N[C@H]5CC[C@H](Oc6ccc(C#N)c(Cl)c6)CC5)nn4)C3)CC2)C1` [Compound 261, 6-[(3R)-3-[4-[5-acetyl-3-[7-(difluoromethyl)-6-thiazol-4-yl-3,4-dihydro-2H-quinolin-1-yl]-6,7-dihydro-4H-pyrazolo[4,3-c]pyridin-1-yl]-1-piperidyl]-1-piperidyl]-N-[4-(3-chloro-4-cyano-phenoxy)cyclohexyl]pyridazine-3-carboxamide] gave an EC50 (AR / CBP ternary complex; [2]) of 1 to 10 nM and an IC50 (VCaP cells) of 1 to 100 nM.
For `CO[C@H]1CN(c2ccc(C(=O)N[C@H]3CC[C@H](Oc4ccc(C#N)c(Cl)c4)CC3)nn2)CC[C@@H]1CN1CCC(n2nc(N3CCCc4cc(-c5cnn(C)c5)c(C(F)F)cc43)c3c2CCN(C(C)=O)C3)CC1` (stereo in doubt) [Compound 220, 6-[4-[[4-[5-acetyl-3-[7-(difluoromethyl)-6-(1-methylpyrazol-4-yl)-3,4-dihydro-2H-quinolin-1-yl]-6,7-dihydro-4H-pyrazolo[4,3-c]pyridin-1-yl]-1-piperidyl]methyl]-3-methoxy-1-piperidyl]-N-[4-(3-chloro-4-cyano-phenoxy)cyclohexyl]pyridazine-3-carboxamide], the EC50 (AR / CBP ternary complex; [2]) was < 1 nM and the IC50 (VCaP cells) was ≤ 0.1 nM.
`CC(=O)N1CCc2c(c(N3CCCc4cc(-c5cnn(C)c5)c(C)cc43)nn2C2CCN(C3CCC4(CC3)CN(c3ccc(C(=O)N[C@H]5CC[C@H](Oc6ccc(C#N)c(Cl)c6C)CC5)nn3)C4)CC2)C1` [Compound 300, 6-[7-[4-[5-acetyl-3-[7-methyl-6-(1-methylpyrazol-4-yl)-3,4-dihydro-2H-quinolin-1-yl]-6,7-dihydro-4H-pyrazolo[4,3-c]pyridin-1-yl]-1-piperidyl]-2-azaspiro[3.5]nonan-2-yl]-N-[4-(3-chloro-4-cyano-2-methyl-phenoxy)cyclohexyl]pyridazine-3-carboxamide] was tested, and the EC50 (AR / CBP ternary complex; [2]) was < 1 nM and the IC50 (VCaP cells) was ≤ 0.1 nM.
For `Cc1noc(C)c1-c1ccc2c(c1)nc(C1CCCC(=O)N1c1ccc(F)c(F)c1)n2C1CCN(CC2CCN(c3ccc(C(=O)N[C@H]4CC[C@H](Oc5ccc(C#N)c(Cl)c5)CC4)nn3)CC2)CC1` (some centres unmarked) [Compound 127, N-[4-(3-chloro-4-cyano-phenoxy)cyclohexyl]-6-[4-[[4-[2-[1-(3,4-difluorophenyl)-6-oxo-2-piperidyl]-5-(3,5-dimethylisoxazol-4-yl)benzimidazol-1-yl]-1-piperidyl]methyl]-1-piperidyl]pyridazine-3-carboxamide], the EC50 (AR / CBP ternary complex; [2]) was > 100 nM and the IC50 (VCaP cells) was > 100 nM.
In the case of `CC(=O)N1CCc2c(c(-c3cccc4cc(-c5cnn(C)c5)ncc34)nn2C2CN(CC3CCN(c4ccc(C(=O)N[C@H]5CC[C@H](Oc6ccc(C#N)c(Cl)c6)CC5)nn4)CC3)C2)C1` [Compound 4, 6-[4-[[3-[5-acetyl-3-[3-(1-methylpyrazol-4-yl)-8-isoquinolyl]-6,7-dihydro-4H-pyrazolo[4,3-c]pyridin-1-yl]azetidin-1-yl]methyl]-1-piperidyl]-N-[4-(3-chloro-4-cyano-phenoxy)cyclohexyl]pyridazine-3-carboxamide], the EC50 (AR / CBP ternary complex; [2]) is reported as < 1 nM and the IC50 (VCaP cells) is reported as ≤ 0.1 nM.
`CC(=O)N1CCc2c(c(-c3cccc4cc(-c5cnn(CCOC6CC7(C6)CN(c6ccc(C(=O)N[C@H]8CC[C@H](Oc9ccc(C#N)c(Cl)c9)CC8)nn6)C7)c5)ncc34)nn2C)C1` [Compound 64, 6-[6-[2-[4-[8-(5-acetyl-1-methyl-6,7-dihydro-4H-pyrazolo[4,3-c]pyridin-3-yl)-3-isoquinolyl]pyrazol-1-yl]ethoxy]-2-azaspiro[3.3]heptan-2-yl]-N-[4-(3-chloro-4-cyano-phenoxy)cyclohexyl]pyridazine-3-carboxamide] showed an EC50 (AR / CBP ternary complex; [2]) of 1 to 10 nM and an IC50 (VCaP cells) of 0.1 to 1 nM.
Compound `CC(=O)N1CCc2c(c(-c3cccc4cc(-c5cnn(CC6CC7(C6)CN(c6ccc(C(=O)N[C@H]8CC[C@H](Oc9ccc(C#N)c(Cl)c9)CC8)nn6)C7)c5)ncc34)nn2C)C1` [Compound 47, 6-[6-[[4-[8-(5-acetyl-1-methyl-6,7-dihydro-4H-pyrazolo[4,3-c]pyridin-3-yl)-3-isoquinolyl]pyrazol-1-yl]methyl]-2-azaspiro[3.3]heptan-2-yl]-N-[4-(3-chloro-4-cyano-phenoxy)cyclohexyl]pyridazine-3-carboxamide] has an EC50 (AR / CBP ternary complex; [1]) of 1 to 10 nM and an IC50 (VCaP cells) of 0.1 to 1 nM.
With `CC(=O)N1CCc2c(c(N3CCCc4cc(-c5ccc(CCC6CCN(c7ccc(C(=O)N[C@H]8CC[C@H](Oc9ccc(C#N)c(Cl)c9)CC8)nn7)CC6)cc5)ncc43)nn2C2CCOCC2)C1` [Compound 156, 6-[4-[2-[4-[1-(5-acetyl-1-tetrahydropyran-4-yl-6,7-dihydro-4H-pyrazolo[4,3-c]pyridin-3-yl)-3,4-dihydro-2H-1,7-naphthyridin-6-yl]phenyl]ethyl]-1-piperidyl]-N-[4-(3-chloro-4-cyano-phenoxy)cyclohexyl]pyridazine-3-carboxamide] the EC50 (AR / CBP ternary complex; [2]) was 1 to 10 nM and the IC50 (VCaP cells) was 1 to 100 nM.
With `CC(=O)N1CCc2c(c(N3CCCc4cc(-c5cnn(C)c5)c(C(F)F)cc43)nn2C2CCN(CC3CC4CCC(C3)N4c3ccc(C(=O)N[C@H]4CC[C@H](Oc5ccc(C#N)c(Cl)c5)CC4)nn3)CC2)C1` (some centres unmarked) [Compound 126, 6-[3-[[4-[5-acetyl-3-[7-(difluoromethyl)-6-(1-methylpyrazol-4-yl)-3,4-dihydro-2H-quinolin-1-yl]-6,7-dihydro-4H-pyrazolo[4,3-c]pyridin-1-yl]-1-piperidyl]methyl]-8-azabicyclo[3.2.1]octan-8-yl]-N-[4-(3-chloro-4-cyano-phenoxy)cyclohexyl]pyridazine-3-carboxamide] the EC50 (AR / CBP ternary complex; [1]) was < 1 nM and the IC50 (VCaP cells) was ≤ 0.1 nM.
In the case of `CC(=O)N1CCc2c(c(N3CCCc4cc(-c5cnn(C)c5)c(C(F)F)cc43)nn2C2CCC3(CC2)CN(C2CN(c4ccc(C(=O)N[C@H]5CC[C@H](Oc6ccc(C#N)c(Cl)c6)CC5)nn4)C2)C3)C1` [Compound 237], the EC50 (AR / CBP ternary complex; [2]) is reported as < 1 nM and the IC50 (VCaP cells) is reported as ≤ 0.1 nM.
